Measured values taken from patent US20240174624A1, “CHIRAL N-(1,3,4-OXADIAZOLE-2-YL)PHENYL CARBOXYLIC ACID AMIDES AND THEIR USE AS HERBICIDES” (Bayer Aktiengesellschaft, priority 2021, published 2024).

Experiments:
ALOMY = assay: Pre-emergence herbicidal action; assay type: in vivo, Alopecurus myosuroides; details: for Pre-emergence action against ALOMY: scored after 3 weeks
From the text: (§1) Seeds of monocotyledonous and dicotyledonous weed plants and crop plants are laid out in sandy loam soil in wood-fibre pots and covered with soil. The compounds of the invention, formulated in the form of wettable powders (WP) or as emulsion concentrates (EC), are then applied to the surface of the covering soil in the form of an aqueous suspension or emulsion at a water application rate equivalent to 600 to 800 l/ha, with addition of 0.2% wetting agent. After the treatment, the pots are placed in a greenhouse and kept under good growth conditions for the trial plants. The damage to the test plants is scored visually after a test period of 3 weeks by comparison with untreated controls (herbicidal activity in percent (%): 100% activity=the plants have died, 0% activity=like control plants). […] The tables below illustrate, in an illustrative manner, the post-emergence herbicidal action of the compounds of the invention, the herbicidal activity being stated in percent. In the experiments that follow, the herbicidal action of the compounds of the invention and that of the corresponding known racemic compounds closest from WO2012126932 and WO2018202535 were compared under the above-specified conditions by the pre-emergence and post-emergence method. The example numbers given in the tables relate to the compounds disclosed in the respective documents.

AMARE [1] = assay: Pre-emergence herbicidal action; assay type: in vivo, Amaranthus retroflexus; details: scored after 3 weeks
From the text: as §1, with “percent.” for “percent. In the experiments that follow, the herbicidal action of the compounds of the invention and that of the corresponding known racemic compounds closest from WO2012126932 and WO2018202535 were compared under the above-specified conditions by the pre-emergence and post-emergence method. The example numbers given in the tables relate to the compounds disclosed in the respective documents.”

AVEFA = assay: Pre-emergence herbicidal action; assay type: in vivo, Avena fatua
From the text: as §1

DIGSA [2] = assay: Pre-emergence herbicidal action; assay type: in vivo, Digitaria sanguinalis; details: scored after 3 weeks
From the text: as §1, with “percent.” for “percent. In the experiments that follow, the herbicidal action of the compounds of the invention and that of the corresponding known racemic compounds closest from WO2012126932 and WO2018202535 were compared under the above-specified conditions by the pre-emergence and post-emergence method. The example numbers given in the tables relate to the compounds disclosed in the respective documents.”

ECHCG [3] = assay: Pre-emergence herbicidal action; assay type: in vivo, Echinochloa crus-galli; details: 80 g/ha, scored after 3 weeks
From the text: as §1, with “percent.” for “percent. In the experiments that follow, the herbicidal action of the compounds of the invention and that of the corresponding known racemic compounds closest from WO2012126932 and WO2018202535 were compared under the above-specified conditions by the pre-emergence and post-emergence method. The example numbers given in the tables relate to the compounds disclosed in the respective documents.”

LOLRI [4] = assay: Pre-emergence herbicidal action; assay type: in vivo, Lolium rigidum
From the text: as §1

MATIN [5] = assay: Pre-emergence herbicidal action; assay type: in vivo, Matricaria inodora; details: scored after 3 weeks
From the text: as §1

POLCO = assay: Pre-emergence herbicidal action; assay type: in vivo, Polygonum convolvulus; details: 80 g/ha, scored after 3 weeks
From the text: as §1

SETVI [6] = assay: Pre-emergence herbicidal action; assay type: in vivo, Setaria viridis; details: scored after 3 weeks
From the text: as §1

VERPE [7] = assay: Pre-emergence herbicidal action; assay type: in vivo, Veronica persica; details: 80 g/ha, scored after 3 weeks
From the text: as §1

VIOTR = assay: Pre-emergence herbicidal action; assay type: in vivo, Viola tricolor; details: scored after 3 weeks
From the text: as §1, with “percent.” for “percent. In the experiments that follow, the herbicidal action of the compounds of the invention and that of the corresponding known racemic compounds closest from WO2012126932 and WO2018202535 were compared under the above-specified conditions by the pre-emergence and post-emergence method. The example numbers given in the tables relate to the compounds disclosed in the respective documents.”

ZEAMX [8] = assay: Pre-emergence damage to crop plants; assay type: in vivo, Zea mays; details: comparative experiment
From the text: as §1

GLXMA = assay: Pre-emergence damage to crop plants; assay type: in vivo, Glycine max; details: comparative experiment
From the text: as §1

AMARE [9] = assay: Post-emergence herbicidal action; assay type: in vivo, Amaranthus retroflexus; details: assessed after about 3 weeks
Protocol: (§2) Seeds of monocotyledonous and dicotyledonous weed and crop plants are laid out in sandy loam soil in wood-fibre pots, covered with soil and cultivated in a greenhouse under good growth conditions. 2 to 3 weeks after sowing, the test plants are treated at the one-leaf stage. The compounds of the invention, formulated in the form of wettable powders (WP) or as emulsion concentrates (EC), are then sprayed onto the green parts of the plants in the form of an aqueous suspension or emulsion at a water application rate equating to 600 to 800 l/ha, with addition of 0.2% wetting agent. After the test plants have been left to stand in the greenhouse under optimal growth conditions for about 3 weeks, the action of the preparations is assessed visually in comparison to untreated controls (herbicidal action in percent (%): 100% activity=the plants have died, 0% activity=like control plants). […] The tables below illustrate, in an illustrative manner, the post-emergence herbicidal action of the compounds of the invention, the herbicidal activity being stated in percent.

DIGSA [10] = assay: Post-emergence herbicidal action; assay type: in vivo, Digitaria sanguinalis; details: for Post-emergence action against DIGSA: assessed after about 3 weeks
Protocol: as §2, with “percent. In the experiments that follow, the herbicidal action of the compounds of the invention and that of the corresponding known racemic compounds closest from WO2012126932 and WO2018202535 were compared under the above-specified conditions by the pre-emergence and post-emergence method. The example numbers given in the tables relate to the compounds disclosed in the respective documents.” for “percent.”

ECHCG [11] = assay: Post-emergence herbicidal action; assay type: in vivo, Echinochloa crus-galli; details: 20 g/ha, assessed after about 3 weeks
Protocol: as §2, with “percent. In the experiments that follow, the herbicidal action of the compounds of the invention and that of the corresponding known racemic compounds closest from WO2012126932 and WO2018202535 were compared under the above-specified conditions by the pre-emergence and post-emergence method. The example numbers given in the tables relate to the compounds disclosed in the respective documents.” for “percent.”

MATIN [12] = assay: Post-emergence herbicidal action; assay type: in vivo, Matricaria inodora; details: 20 g/ha, assessed after about 3 weeks
Protocol: as §2

SETVI [13] = assay: Post-emergence herbicidal action; assay type: in vivo, Setaria viridis; details: assessed after about 3 weeks
Protocol: as §2, with “percent. In the experiments that follow, the herbicidal action of the compounds of the invention and that of the corresponding known racemic compounds closest from WO2012126932 and WO2018202535 were compared under the above-specified conditions by the pre-emergence and post-emergence method. The example numbers given in the tables relate to the compounds disclosed in the respective documents.” for “percent.”

VERPE [14] = assay: Post-emergence herbicidal action; assay type: in vivo, Veronica persica; details: 5 g a.i./ha, comparative experiment
Protocol: as §2, with “percent. In the experiments that follow, the herbicidal action of the compounds of the invention and that of the corresponding known racemic compounds closest from WO2012126932 and WO2018202535 were compared under the above-specified conditions by the pre-emergence and post-emergence method. The example numbers given in the tables relate to the compounds disclosed in the respective documents.” for “percent.”

LOLRI [15] = assay: Post-emergence herbicidal action; assay type: in vivo, Lolium rigidum; details: 20 g a.i./ha, comparative experiment
Protocol: as §2, with “percent. In the experiments that follow, the herbicidal action of the compounds of the invention and that of the corresponding known racemic compounds closest from WO2012126932 and WO2018202535 were compared under the above-specified conditions by the pre-emergence and post-emergence method. […]” for “percent.”

ZEAMX [16] = assay: Post-emergence damage to crop plants; assay type: in vivo, Zea mays; details: comparative experiment
Protocol: as §2, with “percent. In the experiments that follow, the herbicidal action of the compounds of the invention and that of the corresponding known racemic compounds closest from WO2012126932 and WO2018202535 were compared under the above-specified conditions by the pre-emergence and post-emergence method. The example numbers given in the tables relate to the compounds disclosed in the respective documents.” for “percent.”

TRZAS [17] = assay: Post-emergence damage to crop plants; assay type: in vivo, Triticum aestiva; details: comparative experiment
Protocol: as §2, with “percent. In the experiments that follow, the herbicidal action of the compounds of the invention and that of the corresponding known racemic compounds closest from WO2012126932 and WO2018202535 were compared under the above-specified conditions by the pre-emergence and post-emergence method. The example numbers given in the tables relate to the compounds disclosed in the respective documents.” for “percent.”

BRSNW = assay: Post-emergence damage to crop plants; assay type: in vivo, Brassica napus; details: 20 g a.i./ha, comparative experiment
Protocol: as §2, with “percent. In the experiments that follow, the herbicidal action of the compounds of the invention and that of the corresponding known racemic compounds closest from WO2012126932 and WO2018202535 were compared under the above-specified conditions by the pre-emergence and post-emergence method. […]” for “percent.”

ORYZA [18] = assay: Pre-emergence damage to crop plants; assay type: in vivo, Oryza sativa; details: 80 g a.i./ha, comparative experiment
From the text: as §1

TRZAS [19] = assay: Pre-emergence damage to crop plants; assay type: in vivo, Triticum aestiva; details: 80 g a.i./ha, comparative experiment
From the text: as §1

ORYZA [20] = assay: Post-emergence damage to crop plants; assay type: in vivo, Oryza sativa; details: 80 g a.i./ha, comparative experiment
Protocol: as §2, with “percent. In the experiments that follow, the herbicidal action of the compounds of the invention and that of the corresponding known racemic compounds closest from WO2012126932 and WO2018202535 were compared under the above-specified conditions by the pre-emergence and post-emergence method. The example numbers given in the tables relate to the compounds disclosed in the respective documents.” for “percent.”

[21] = 20 g a.i./ha, comparative experiment

Cc1nnc(NC(=O)c2ccc(C(F)(F)F)c([S+]([O-])C3CC3)c2Cl)o1 (stereo in doubt) [Example I-4, 2-chloro-N-(5-methyl-1,3,4-oxadiazol-2-yl)-3-[(S)-cyclopropylsulfinyl]-4-(trifluoromethyl)benzamide]
Herbicidal action against ALOMY (ALOMY; [21]): 80%
Pre-emergence action against ALOMY (ALOMY; 20 g/ha): 80%
Pre-emergence action against ALOMY (ALOMY; 80 g/ha): 100%
Pre-emergence action against AMARE (AMARE [1]; 20 g/ha): 100%
Pre-emergence action against AMARE (AMARE [1]; 80 g/ha): 100%
Herbicidal action against AVEFA (AVEFA; [21]): 30%
Pre-emergence action against AVEFA (AVEFA; 80 g/ha, scored after 3 weeks): 90%
Pre-emergence action against DIGSA (DIGSA [2]; 20 g/ha): 100%
Pre-emergence action against DIGSA (DIGSA [2]; 80 g/ha): 100%
Pre-emergence action against ECHCG (ECHCG [3]): 100%
Herbicidal action against LOLRI (LOLRI [4]; [21]): 50%
Pre-emergence action against LOLRI (LOLRI [4]; 80 g/ha, scored after 3 weeks): 80%
Pre-emergence action against MATIN (MATIN [5]; 20 g/ha): 80%
Pre-emergence action against MATIN (MATIN [5]; 80 g/ha): 100%
Pre-emergence action against POLCO (POLCO): 80%
Pre-emergence action against SETVI (SETVI [6]; 20 g/ha): 100%
Pre-emergence action against SETVI (SETVI [6]; 80 g/ha): 100%
Pre-emergence action against VERPE (VERPE [7]): 100%
Pre-emergence action against VIOTR (VIOTR; 20 g/ha): 100%
Pre-emergence action against VIOTR (VIOTR; 80 g/ha): 100%
Damage to ZEAMX (ZEAMX [8]; 80 g a.i./ha): 50%
Damage to GLXMA (GLXMA; 20 g a.i./ha): 40%
Damage to GLXMA (GLXMA; 80 g a.i./ha): 80%
Post-emergence action against AMARE (AMARE [9]; 5 g/ha): 100%
Post-emergence action against AMARE (AMARE [9]; 20 g/ha): 100%
Post-emergence action against DIGSA (DIGSA [10]; 5 g/ha): 90%
Herbicidal action against DIGSA (DIGSA [10]; [21]): 100%
Post-emergence action against DIGSA (DIGSA [10]; 20 g/ha): 100%
Post-emergence action against ECHCG (ECHCG [11]): 90%
Post-emergence action against MATIN (MATIN [12]): 80%
Post-emergence action against SETVI (SETVI [13]; 5 g/ha): 100%
Post-emergence action against SETVI (SETVI [13]; 20 g/ha): 100%
Herbicidal action against VERPE (VERPE [14]): 60%
Herbicidal action against LOLRI (LOLRI [15]): 60%
Damage to ZEAMX (ZEAMX [16]; 20 g a.i./ha): 0%
Damage to TRZAS (TRZAS [17]; 20 g a.i./ha): 20%
Damage to BRSNW (BRSNW): 80%

C[S+]([O-])c1c(C(F)(F)F)ccc(C(=O)Nc2nnco2)c1Cl (racemic) [1-360, from WO2012126932, 2-chloro-N-(1,3,4-oxadiazol-2-yl)-3-[(rac)-methylsulfinyl]-4-(trifluoromethyl)benzamide, reference compound]
Damage to ZEAMX (ZEAMX [8]; 320 g a.i./ha): 20%
Damage to ORYZA (ORYZA [18]): 100%
Damage to TRZAS (TRZAS [19]): 80%
Damage to ORYZA (ORYZA [20]): 100%
Damage to ZEAMX (ZEAMX [16]; 80 g a.i./ha): 20%
Damage to TRZAS (TRZAS [17]; 80 g a.i./ha): 100%
